The subject of the test is SVR cells. As to the kind of experiment: SVR cell assay: cell numbers counted at 48 hours, percent inhibition versus control. Format: cell-based, murine. The conditions noted are these: 10,000 SVR cells in 24 well dish, counted at 48 hours; for Percent Inhibition at a Specified Density (μg/ml): 1 / inhibition at 1 µg/mL: 1 μg/ml; for Percent Inhibition at a Specified Density (μg/ml): 3 / inhibition at 3 µg/mL: 3 μg/ml; for Percent Inhibition at a Specified Density (μg/ml): 6 / inhibition at 6 µg/mL: 6 μg/ml; for inhibition at 1 µg/mL: read-out: Percent Inhibition at a Specified Density (μg/ml): 1; for inhibition at 3 µg/mL: read-out: Percent Inhibition at a Specified Density (μg/ml): 3; for inhibition at 6 µg/mL: read-out: Percent Inhibition at a Specified Density (μg/ml): 6.

Method: In the case of testing the anti-angiogenic/anti-cancer activity of compounds according to the present invention, an assay based on SVR cells may be employed. […] The cell numbers are counted and compared against controls. Percent inhibition is readily determined from the data obtained.
10,000 SVR cells were seeded in a 24 well dish [Arbiser, et al., J. Am. […] The cell numbers were counted at 48 hours.

Turning to `O=C1C(=Cc2c(Cl)cccc2Cl)COc2ccccc21` [Compound 67, 3-(2,6-Dichlorobenzylidene)chromanone], the “Percent Inhibition at a Specified Density (μg/ml): 1” value (shortened to “Percent Inhibition … 1”) worked out at 5.4%, the “Percent Inhibition at a Specified Density (μg/ml): 3” value (“Percent Inhibition … 3” below) worked out at 3.6% and the “Percent Inhibition at a Specified Density (μg/ml): 6” value (shortened to “Percent Inhibition … 6”) was found to be 12.5%.

As to `O=C1C(=Cc2ccccc2)CCc2ccccc21` [Compound 68, 2-(Benzylidene)tetralone], the “Percent Inhibition … 3” value was 57.9% and the “Percent Inhibition … 6” value was 97.5%. The “Percent Inhibition at a Specified Density (μg/ml): 9” value (9 μg/ml) is 96.7%.

For the compound `O=C1C(=Cc2c(Cl)cccc2Cl)CCc2ccccc21` [Compound 69, 2-(2,6-Dichlorobenzylidene)tetralone], the “Percent Inhibition … 1” value was 32.8%, the “Percent Inhibition … 3” value is on record as 37.0% and the “Percent Inhibition … 6” value is given as 53.7%.

Turning to `O=C1C(=Cc2cccc3ccccc23)CCc2ccccc21` [Compound 70, 2-(1-Naphthylidene)tetralone], the “Percent Inhibition … 1” value is listed as 18.7%, the “Percent Inhibition … 3” value worked out at 15.9% and the “Percent Inhibition … 6” value is on record as 23.6%.

On to `O=C(/C=C/c1c(F)cccc1Cl)/C=C/c1c(F)cccc1Cl` [Compound 72, 1,5-Di(2-chloro-6-fluorophenyl)-1E,4E-pentadien-3-one], for which, where the note is “Mus musculus”, the inhibition at 1 µg/mL amounted to 57%, the inhibition at 3 µg/mL was 70.6% and the inhibition at 6 µg/mL came to 86.6%.

On to `O=C(/C=C/c1c(Cl)cccc1Cl)/C=C/c1c(Cl)cccc1Cl` [Compound 73, 1,5-Bis(2,6-dichlorophenyl)-1E,4E-pentadien-3-one], for which, under “Mus musculus”, the inhibition at 1 µg/mL stood at 60.7%, the inhibition at 3 µg/mL turned out to be 87.1% and the inhibition at 6 µg/mL came out at 90.4%.

For the compound `O=C(/C=C/c1ccco1)/C=C/c1ccco1` [Compound 74, 1,5-Di(2-furyl)-1E,4E-pentadien-3-one], for the setting “Mus musculus”, the inhibition at 1 µg/mL came to 0%, the inhibition at 3 µg/mL worked out at 9.3% and the inhibition at 6 µg/mL amounted to 56.5%.

As for `O=C1C(=Cc2ccccc2)CCCC1=Cc1ccccc1` [Compound 75, 2,6-Di(benzylidene)cyclohexanone], under “Mus musculus”, the inhibition at 3 µg/mL amounted to 91.3% and the inhibition at 6 µg/mL came to 92.8%. For the same compound, the inhibition at 9 µg/mL (Mus musculus, 9 μg/ml, read-out: Percent Inhibition at a Specified Density (μg/ml): 9) turned out to be 97.4%.

With `O=C1C(=Cc2c(Cl)cccc2Cl)CCCC1=Cc1c(Cl)cccc1Cl` [Compound 76, 2,6-Bis(2,6-dichlorobenzylidene)cyclohexanone], where the note is “Mus musculus”, the inhibition at 1 µg/mL was 8.4%, the inhibition at 3 µg/mL worked out at 29.8% and the inhibition at 6 µg/mL is 27.1%.

As for `O=C1C(=C2C=CC=CN2)CCCC1=C1C=CC=CN1` [Compound 79, 2,6-Di(2-pyridylidene)cyclohexanone], under “Mus musculus”, the inhibition at 1 µg/mL was found to be 88.3%, the inhibition at 3 µg/mL came out at 92.9% and the inhibition at 6 µg/mL was 96.7%.

For the origin of these results see patent US7432303B2, “Chalcone and its analogs as agents for the inhibition of angiogenesis and related disease states” (James and Emory University, priority 1999, dated 2008).
